Experimental data taken from patent US9873690B2, “3-indol substituted derivatives, pharmaceutical compositions and methods for use” (Pfizer Inc., priority 2015, dated 2018).

Target: T1, hTDO2 (Homo sapiens, UniProt P48775)
T1 construct: endogenous in cells; host or cells: A172 human brain glioblastoma cells (ATCC CRL-1620)
Experiment: Cellular assay for TDO2 activity determination in A172 cells
Assay type: cell-based
Conditions: human glioblastoma A172 cells naturally expressing hTDO2; overnight incubation; kynurenine by absorbance at 480 nm
Experimental: The compounds of formula I inhibit the activity of human TDO2 in cells that constitutively express TDO2, such as A172 cells. A172 is a cell line derived from human brain glioblastoma cells. The cells are available from the American Type Culture Collection (ATCC®) as CRL-1620™.
The assay (adapted from Pilotte L et al., Proc Natl Acad Sci USA, 2012, 109(7), 2497-502) was performed in 96-well flat bottom plates seeded with human glioblastoma A172 cells, naturally expressing hTDO2 (prepared as described in Tilman et al., Mol Cancer, 2007, 17(6), 80), at a concentration of 1.25×10^4 cells/well in a final volume of 200 μL. To determine TDO, the cells were incubated overnight at 37° C. at 5% CO2 in IMDM (Invitrogen) supplemented with 2% FBS and 2% penicillin/streptomycin in the presence of the compounds of the present invention, at different concentrations.
The plates were then centrifuged 5 min at 1000 rpm, and 100 μL of the supernatant were collected in a conical plate, 30 μL of TCA 30% were added and a further centrifuged at 3000×g for 10 minutes. 100 μL of the supernatant were collected in a flat bottomed plate and 100 μL of 2% (w/v) 4-(dimethylamino)-benzaldehyde in acetic acid and incubated for 5 min at room temperature. Kynurenine concentrations were determined by measuring the absorbance at 480 nm. A standard curve was made with pure kynurenine. The TDO activity was measured as described above using ten serial concentrations of the compounds of the present invention. Data were fitted using the Prism™ software (GraphPad Software, Inc.) using standard parameters.
The biological activity of representative compounds in human brain glioblastoma cells as determined in the above-referenced assay is summarized in the following table: […]

T1 sequence (P48775 whole entry): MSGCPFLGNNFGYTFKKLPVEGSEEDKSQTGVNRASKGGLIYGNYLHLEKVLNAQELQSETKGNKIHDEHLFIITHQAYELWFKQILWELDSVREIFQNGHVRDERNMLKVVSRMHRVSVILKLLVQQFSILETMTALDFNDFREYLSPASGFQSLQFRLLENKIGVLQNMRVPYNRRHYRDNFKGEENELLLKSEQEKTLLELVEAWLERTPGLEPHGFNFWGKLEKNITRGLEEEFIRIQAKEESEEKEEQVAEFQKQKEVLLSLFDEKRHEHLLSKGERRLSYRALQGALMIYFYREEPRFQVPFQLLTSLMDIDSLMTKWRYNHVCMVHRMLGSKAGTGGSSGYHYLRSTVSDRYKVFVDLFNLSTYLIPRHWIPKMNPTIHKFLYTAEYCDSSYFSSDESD

| IC50 | SMILES |
| --- | --- |
| 233 nM | CC1c2cc(-c3c[nH]c4cc(F)ccc34)ccc2S(=O)(=O)N1CCS(C)(=O)=O (single isomer, unassigned; (-)) [Example 54, (−)-5-(6-fluoro-1H-indol-3-yl)-3-methyl-2-(2-(methylsulfonyl)ethyl)-2,3-dihydrobenzo[d]isothiazole 1,1-dioxide] |
| 246 nM | CC(=O)N1CCC(N2C(C)c3cc(-c4c[nH]c5cc(F)ccc45)ccc3S2(=O)=O)C1 (single isomer, unassigned; (+)) [Example 73, (+)-1-(3-(5-(6-fluoro-1H-indol-3-yl)-3-methyl-1,1-dioxidobenzo[d]isothiazol-2(3H)-yl)pyrrolidin-1-yl)ethanone] |
| 258 nM | CC1c2cc(-c3c[nH]c4cc(F)ccc34)ccc2S(=O)(=O)N1CC1CCN(C)CC1 (single isomer, unassigned; (-)) [Example 79, (−)-5-(6-fluoro-1H-indol-3-yl)-3-methyl-2-((1-methylpiperidin-4-yl)methyl)-2,3-dihydrobenzo[d]isothiazole 1,1-dioxide] |
| 647 nM | COC(=O)NCC1NS(=O)(=O)c2ccc(-c3c[nH]c4cc(F)ccc34)cc21 (single isomer, unassigned; (+)) [Example 22, (+)-methyl ((5-(6-fluoro-1H-indol-3-yl)-1,1-dioxido-2,3-dihydrobenzo[d]isothiazol-3-yl)methyl)carbamate] |
| 180 nM | CNC(=O)C(O)CN1C(C)c2cc(-c3c[nH]c4cc(F)ccc34)ccc2S1(=O)=O (single isomer, unassigned; (+)) [Example 99, (+)-3-(5-(6-fluoro-1H-indol-3-yl)-3-methyl-1,1-dioxidobenzo[d]isothiazol-2(3H)-yl)-2-hydroxy-N-methylpropanamide] |
| 265 nM | CNC(=O)C(C)N1C(C)c2cc(-c3c[nH]c4cc(F)ccc34)ccc2S1(=O)=O (single isomer, unassigned; (-)) [Example 148, (−)-2-(5-(6-fluoro-1H-indol-3-yl)-3-methyl-1,1-dioxidobenzo[d]isothiazol-2(3H)-yl)-N-methylpropanamide] |
| 114 nM | CNC(=O)C(N)CN1C(C)c2cc(-c3c[nH]c4cc(F)ccc34)ccc2S1(=O)=O (single isomer, unassigned; (+)) [Example 102, (+)-2-amino-3-(5-(6-fluoro-1H-indol-3-yl)-3-methyl-1,1-dioxidobenzo[d]isothiazol-2(3H)-yl)-N-methylpropanamide] |
| 77 nM | CC1c2cc(-c3c[nH]c4cc(F)ccc34)ccc2S(=O)(=O)N1CCC(N)=O (single isomer, unassigned; (-)) [Example 48, (−)-3-(5-(6-fluoro-1H-indol-3-yl)-3-methyl-1,1-dioxidobenzo[d]isothiazol-2(3H)-yl)propanamide] |
| 68 nM | CC1c2cc(-c3c[nH]c4cc(F)ccc34)ccc2S(=O)(=O)N1C1CNC(=O)C1 (single isomer, unassigned; (-)) [Example 124, (−)-4-(5-(6-fluoro-1H-indol-3-yl)-3-methyl-1,1-dioxido-benzo[d]isothiazol-2(3H)-yl)pyrrolidin-2-one] |
| 97 nM | CC1c2cc(-c3c[nH]c4cc(F)ccc34)ccc2S(=O)(=O)N1Cc1ncn(C)n1 (single isomer, unassigned; (+)) [Example 86, (+)-5-(6-fluoro-1H-indol-3-yl)-3-methyl-2-((1-methyl-1H-1,2,4-triazol-3-yl)methyl)-2,3-dihydrobenzo[d]isothiazole 1,1-dioxide] |
| 59 nM | CC1c2cc(-c3c[nH]c4cc(F)ccc34)ccc2S(=O)(=O)N1CC(=O)N(C)C (single isomer, unassigned; (-)) [Example 113, (−)-2-(5-(6-fluoro-1H-indol-3-yl)-3-methyl-1,1-dioxidobenzo[d]isothiazol-2(3H)-yl)-N,N-dimethylacetamide] |
| 92 nM | CNC(=O)C(C)N1C(C)c2cc(-c3c[nH]c4cc(F)ccc34)ccc2S1(=O)=O (single isomer, unassigned; (-)) [Example 145, (−)-2-(5-(6-fluoro-1H-indol-3-yl)-3-methyl-1,1-dioxidobenzo[d]isothiazol-2(3H)-yl)-N-methylpropanamide] |
| 499 nM | CNC(=O)C(CN1C(C)c2cc(-c3c[nH]c4cc(F)ccc34)ccc2S1(=O)=O)OC (single isomer, unassigned; (+)) [Example 107, (+)-3-(5-(6-fluoro-1H-indol-3-yl)-3-methyl-1,1-dioxidobenzo[d]isothiazol-2(3H)-yl)-2-methoxy-N-methylpropanamide] |
| 115 nM | CNC(=O)C(O)CN1C(C)c2cc(-c3c[nH]c4cc(F)ccc34)ccc2S1(=O)=O (single isomer, unassigned; (-)) [Example 98, (−)-3-(5-(6-fluoro-1H-indol-3-yl)-3-methyl-1,1-dioxidobenzo[d]isothiazol-2(3H)-yl)-2-hydroxy-N-methylpropanamide] |
| 142 nM | C[S+]([O-])CCN1Cc2cc(-c3c[nH]c4cc(F)ccc34)ccc2S1(=O)=O (single isomer, unassigned; (+)) [Example 42, (+)-5-(6-fluoro-1H-indol-3-yl)-2-(2-(methylsulfinyl)ethyl)-2,3-dihydrobenzo[d]isothiazole 1,1-dioxide] |
| 54 nM | CNC(=O)C(C)N1C(C)c2cc(-c3c[nH]c4cc(F)ccc34)ccc2S1(=O)=O (single isomer, unassigned; (+)) [Example 146, (+)-2-(5-(6-fluoro-1H-indol-3-yl)-3-methyl-1,1-dioxidobenzo[d]isothiazol-2(3H)-yl)-N-methylpropanamide] |
| 103 nM | O=S1(=O)NC(C2CC2)c2cc(-c3c[nH]c4cc(F)ccc34)ccc21 (single isomer, unassigned; (-)) [Example 11, (−)-3-cyclopropyl-5-(6-fluoro-1H-indol-3-yl)-2,3-dihydrobenzo[d]isothiazole 1,1-dioxide] |
| 33 nM | CNC(=O)C(O)CN1C(C)c2cc(-c3c[nH]c4cc(F)ccc34)ccc2S1(=O)=O (single isomer, unassigned; (+)) [Example 97, (+)-3-(5-(6-fluoro-1H-indol-3-yl)-3-methyl-1,1-dioxidobenzo[d]isothiazol-2(3H)-yl)-2-hydroxy-N-methylpropanamide] |
| 389 nM | CC1c2cc(-c3c[nH]c4cc(F)ccc34)ccc2S(=O)(=O)N1C[C@@]1(C)CCC(=O)N1 (single isomer, unassigned; (-)) [Example 84] |
| 66 nM | CNCC1NS(=O)(=O)c2ccc(-c3c[nH]c4cc(F)ccc34)cc21 (single isomer, unassigned) [Example 137, 5-(6-fluoro-1H-indol-3-yl)-3-((methylamino)methyl)-2,3-dihydrobenzo[d]isothiazole 1,1-dioxide] |
| 82 nM | CC(C)C1NS(=O)(=O)c2ccc(-c3c[nH]c4cc(F)ccc34)cc21 (single isomer, unassigned; (-)) [Example 9, (−)-5-(6-fluoro-1H-indol-3-yl)-3-isopropyl-2,3-dihydrobenzo-[d]isothiazole 1,1-dioxide] |
| 133 nM | CNS(=O)(=O)CCN1C(C)c2cc(-c3c[nH]c4cc(F)ccc34)ccc2S1(=O)=O (single isomer, unassigned; (+)) [Example 60, (+)-2-(5-(6-fluoro-1H-indol-3-yl)-3-methyl-1,1-dioxidobenzo[d]isothiazol-2(3H)-yl)-N-methylethane-1-sulfonamide] |
| 285 nM | CS(=O)(=O)NCC1NS(=O)(=O)c2ccc(-c3c[nH]c4cc(F)ccc34)cc21 (single isomer, unassigned; (+)) [Example 140, (+)-N-((5-(6-fluoro-1H-indol-3-yl)-1,1-dioxido-2,3-dihydrobenzo[d]isothiazol-3-yl)methyl)methanesulfonamide] |
| 196 nM | CN1CCC(N2Cc3cc(-c4c[nH]c5cc(F)ccc45)ccc3S2(=O)=O)CC1 [Example 37, 5-(6-fluoro-1H-indol-3-yl)-2-(1-methylpiperidin-4-yl)-2,3-dihydrobenzo[d]isothiazole 1,1-dioxide] |
| 188 nM | CNC(=O)C(CN1C(C)c2cc(-c3c[nH]c4cc(F)ccc34)ccc2S1(=O)=O)OC (single isomer, unassigned; (+)) [Example 105, (+)-3-(5-(6-fluoro-1H-indol-3-yl)-3-methyl-1,1-dioxidobenzo[d]isothiazol-2(3H)-yl)-2-methoxy-N-methylpropanamide] |
| 234 nM | CNCC1NS(=O)(=O)c2ccc(-c3c[nH]c4cc(F)ccc34)cc21 (single isomer, unassigned; (+)) [Example 138, (+)-5-(6-fluoro-1H-indol-3-yl)-3-((methylamino)methyl)-2,3-dihydrobenzo[d]isothiazole 1,1-dioxide] |
| 342 nM | O=S1(=O)c2ccc(-c3c[nH]c4cc(F)ccc34)cc2C(CO)N1CC(O)CO (single isomer, unassigned; (-)) [Example 143, (−)-2-(2,3-dihydroxypropyl)-5-(6-fluoro-1H-indol-3-yl)-3-(hydroxymethyl)-2,3-dihydrobenzo[d]isothiazole 1,1-dioxide] |
